Experimental data from PubChem BioAssay AID1963977 (Molecular Pharmacology Branch, DTP, NCI, 2024).

System: 624824-186-R-J3-PDC multicell spheroids, viability
Test: Anticancer human tumor 624824-186-R-J3-PDC patient-derived colon adenocarcinoma cell line growth inhibition [PI3K]
Details: for viability, T/C: stronger effect = lower value
Outline: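 Combination activity was assessed by viability in multicellular tumor spheroids carrying HUVEC and MSC components. Agents were tested with PI3K inhibitors from a Cmax-based top dose (or 10 microM) downward in half-log increments.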
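Note: spheroids exposed to agents for seven days before luminescence read.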
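Throughout, for viability, T/C: luminescent signal used as a stand-in for spheroid viability; percent viability relative to DMSO vehicle control wells taken as 100%.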

## C=CC(=O)N1CCN(c2nc(=O)n(-c3c(C)ccnc3C(C)C)c3nc(-c4c(O)cccc4F)c(F)cc23)C(C)C1 (centres undefined) + CC(Nc1ncnc2nc[nH]c12)c1cc2cccc(Cl)c2c(=O)n1-c1ccccc1
Curve of first compound, second compound 0.0316 µM
  IC50: > 10 µM
Curve of first compound, second compound 0.1 µM
  IC50: > 10 µM
Curve of first compound, second compound 0.316 µM
  IC50: > 10 µM
Curve of first compound, second compound 1 µM
  IC50: > 10 µM
Curve of first compound, second compound 3.16 µM
  IC50: > 10 µM
Curve of first compound, second compound 10 µM
  IC50: > 10 µM
Second compound 0.0316 µM, first compound 0.0316 µM
  viability, T/C: 125%
Second compound 0.0316 µM, first compound 0.1 µM
  viability, T/C: 96.1%
Second compound 0.0316 µM, first compound 0.316 µM
  viability, T/C: 114%
Second compound 0.0316 µM, first compound 1 µM
  viability, T/C: 102%
Second compound 0.0316 µM, first compound 3.16 µM
  viability, T/C: 113%
Second compound 0.0316 µM, first compound 10 µM
  viability, T/C: 121%
Second compound 0.1 µM, first compound 0.0316 µM
  viability, T/C: 105%
Second compound 0.1 µM, first compound 0.1 µM
  viability, T/C: 94.6%
Second compound 0.1 µM, first compound 0.316 µM
  viability, T/C: 121%
Second compound 0.1 µM, first compound 1 µM
  viability, T/C: 97.7%
Second compound 0.1 µM, first compound 3.16 µM
  viability, T/C: 107%
Second compound 0.1 µM, first compound 10 µM
  viability, T/C: 119%
Second compound 0.316 µM, first compound 0.0316 µM
  viability, T/C: 96.9%
Second compound 0.316 µM, first compound 0.1 µM
  viability, T/C: 116%
Second compound 0.316 µM, first compound 0.316 µM
  viability, T/C: 100%
Second compound 0.316 µM, first compound 1 µM
  viability, T/C: 108%
Second compound 0.316 µM, first compound 3.16 µM
  viability, T/C: 111%
Second compound 0.316 µM, first compound 10 µM
  viability, T/C: 120%
Second compound 1 µM, first compound 0.0316 µM
  viability, T/C: 106%
Second compound 1 µM, first compound 0.1 µM
  viability, T/C: 111%
Second compound 1 µM, first compound 0.316 µM
  viability, T/C: 109%
Second compound 1 µM, first compound 1 µM
  viability, T/C: 111%
Second compound 1 µM, first compound 3.16 µM
  viability, T/C: 127%
Second compound 1 µM, first compound 10 µM
  viability, T/C: 116%
Second compound 3.16 µM, first compound 0.0316 µM
  viability, T/C: 104%
Second compound 3.16 µM, first compound 0.1 µM
  viability, T/C: 107%
Second compound 3.16 µM, first compound 0.316 µM
  viability, T/C: 97.9%
Second compound 3.16 µM, first compound 1 µM
  viability, T/C: 106%
Second compound 3.16 µM, first compound 3.16 µM
  viability, T/C: 102%
Second compound 3.16 µM, first compound 10 µM
  viability, T/C: 115%
Second compound 10 µM, first compound 0.0316 µM
  viability, T/C: 95.3%
Second compound 10 µM, first compound 0.1 µM
  viability, T/C: 103%
Second compound 10 µM, first compound 0.316 µM
  viability, T/C: 95.5%
Second compound 10 µM, first compound 1 µM
  viability, T/C: 114%
Second compound 10 µM, first compound 3.16 µM
  viability, T/C: 99.6%
Second compound 10 µM, first compound 10 µM
  viability, T/C: 93.3%

## CC1(C)CCC(Nc2ncc(C(F)(F)F)c(-c3c[nH]c4c(P(C)(C)=O)c(C#N)ccc34)n2)CN1 (centres undefined)
Compound 0.0316 µM
  viability, T/C: 106% [middle of 4 runs]
Compound 0.1 µM
  viability, T/C: 87.3% [middle of 4 runs]
Compound 0.316 µM
  viability, T/C: 96.5% [middle of 4 runs]
Compound 1 µM
  viability, T/C: 96.9% [middle of 4 runs]
Compound 3.16 µM
  viability, T/C: 100% [middle of 4 runs]
Compound 10 µM
  viability, T/C: 4.6% [middle of 4 runs]
Curve of compound
  IC50: 5.64 µM [middle of 4 runs]
